From publication PMC9324262, “Selective CDK9 Inhibition by Natural Compound Toyocamycin in Cancer Cells” (Cancers, 2022) come the findings set out here.

For one series, the target named is T1, CDK9/Cyclin T1 (Homo sapiens, UniProt P50750).
T1 construct: purchased BPS Bioscience
The series can be described thus: in vitro kinase assay CDK9/Cyclin T1 (Kinase-Glo Plus luminescence). Format: biochemical. On the procedure:
(§1) The in vitro enzymatic assays were conducted at BPS Bioscience. CDK9/Cyclin T1, CDK2/Cyclin 2A, CDK4/Cyclin D3, and CDK6/Cyclin D3 enzymatic activities were tested with an ATP Kinase-Glo Plus Luminescence kinase assay kit (Promega, V6073, Madison, WI, USA), while the CDK7/Cyclin H/MAT1 activities were tested using ADP-Glo Kinase (Promega, V6930). These assays measure kinase activity by quantifying the amount of ATP or ADP remaining in solution following a kinase reaction. The luminescent signal from the assay is correlated to the amount of ATP or ADP present and is inversely correlated to the kinase activity. The compounds were diluted to 10% DMSO and were added to the reaction so that the final concentration of DMSO was 1% in all reactions. All enzymatic reactions were conducted at 30 °C for 60 min. […] After the enzymatic reaction, the luminescence signal was measured using a BioTek Synergy 2 microplate reader (Agilent, Santa Clara, CA, USA). Kinase activity assays were performed in duplicate at each concentration and the percent of kinase activity was calculated as a ratio of luminescence intensities in the absence or in presence of the compounds. […] IC50 values were determined by the concentration causing a half-maximal percent activity (BPS Bioscience, San Diego, CA, USA).

A further series concerns the target T2, CDK6/Cyclin D3 (Homo sapiens, UniProt Q00534).
T2 construct: purchased BPS Bioscience
The series can be described thus: in vitro kinase assay CDK6/Cyclin D3 (Kinase-Glo Plus). It counts as biochemical. The method, then: as §1
On the technique in general: Kinase-Glo reads ATP consumption through a luciferase reaction.

Series [1] in a line: cell viability by Viacount, YB5. The conditions noted are these: human, YB5 colon cancer cells; 24 and 72 h, 50 nM to 50 µM, highest doses; read-out: cell viability relative to untreated cells. Format: cell-based. The method, then: Cell viability was measured in YB5 and HCT166 cells using Viacount (Luminex, Austin, TX, USA, 4000-0040) on a Guava flow cytometer (Millipore, Burlington, MA, USA). Colon cancer cells were grown in 96-well plates in the same conditions as in the drug screen and treated with toyocamycin and known CDK9 inhibitor BAY1251152 (Selleckchem, Houston, TX, USA). Cell culture media of each well was collected to harvest floating dead cells and kept aside for later. Cells were trypsinized (0.25% trypsin, Gibco, Waltham, MA, USA) for 5 min at 37 °C. Cell culture media of each well was added back to their corresponding wells to stop trypsinization and mixed thoroughly to obtain a single cell suspension. Viacount solution (Luminex, Austin, TX, USA, 4000-0040, 25 μL) was added to each well, and incubated (5 min at room temperature, in the dark) prior to cell viability analysis on the Guava flow cytometer.

“And” between values parts separate entries of the source, which are not always exact repeats. Equal values may be shown once.

The IC50 is the point on the concentration scale where inhibition reaches its midpoint. In general, viability refers to a read-out of living cells in per cent, often relative to untreated cells.

T1 sequence (P50750 whole entry): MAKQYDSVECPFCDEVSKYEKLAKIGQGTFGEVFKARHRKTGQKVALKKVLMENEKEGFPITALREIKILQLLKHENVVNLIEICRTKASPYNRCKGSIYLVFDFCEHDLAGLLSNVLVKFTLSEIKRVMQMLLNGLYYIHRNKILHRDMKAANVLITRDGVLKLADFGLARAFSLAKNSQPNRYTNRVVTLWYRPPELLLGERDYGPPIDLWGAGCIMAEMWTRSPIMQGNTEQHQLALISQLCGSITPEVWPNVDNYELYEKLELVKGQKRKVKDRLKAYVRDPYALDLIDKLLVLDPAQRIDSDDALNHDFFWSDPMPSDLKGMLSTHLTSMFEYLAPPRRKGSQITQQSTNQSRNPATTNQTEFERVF
T1 sequence (O60563 whole entry partner): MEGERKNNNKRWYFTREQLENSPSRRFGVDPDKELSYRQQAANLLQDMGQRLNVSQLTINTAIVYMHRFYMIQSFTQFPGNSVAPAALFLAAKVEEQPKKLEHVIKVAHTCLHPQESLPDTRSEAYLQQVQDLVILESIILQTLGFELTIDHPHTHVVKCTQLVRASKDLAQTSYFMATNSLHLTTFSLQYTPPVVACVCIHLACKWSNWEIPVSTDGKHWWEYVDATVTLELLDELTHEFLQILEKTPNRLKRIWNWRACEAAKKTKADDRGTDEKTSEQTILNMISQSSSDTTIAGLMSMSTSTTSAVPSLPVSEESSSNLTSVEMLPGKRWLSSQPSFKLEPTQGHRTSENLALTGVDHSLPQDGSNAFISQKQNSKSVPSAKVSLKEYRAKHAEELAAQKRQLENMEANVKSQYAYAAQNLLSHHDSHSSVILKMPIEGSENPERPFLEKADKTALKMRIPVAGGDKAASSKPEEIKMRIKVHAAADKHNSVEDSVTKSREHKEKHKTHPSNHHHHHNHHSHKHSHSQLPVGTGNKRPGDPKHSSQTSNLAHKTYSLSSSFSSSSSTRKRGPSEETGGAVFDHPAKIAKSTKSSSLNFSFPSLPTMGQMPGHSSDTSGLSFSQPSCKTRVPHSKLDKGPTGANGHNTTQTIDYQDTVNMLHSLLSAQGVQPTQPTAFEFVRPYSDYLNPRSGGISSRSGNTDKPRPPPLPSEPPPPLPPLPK
T2 sequence (Q00534 whole entry): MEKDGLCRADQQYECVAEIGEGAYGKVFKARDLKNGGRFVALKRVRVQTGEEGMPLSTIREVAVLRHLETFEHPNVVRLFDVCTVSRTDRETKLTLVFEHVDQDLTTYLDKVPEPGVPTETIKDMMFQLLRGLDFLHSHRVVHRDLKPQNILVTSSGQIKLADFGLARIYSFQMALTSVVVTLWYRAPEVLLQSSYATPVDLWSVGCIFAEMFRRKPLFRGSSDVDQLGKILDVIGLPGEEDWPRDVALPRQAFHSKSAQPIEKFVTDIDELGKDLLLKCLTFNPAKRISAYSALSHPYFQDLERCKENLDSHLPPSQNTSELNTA
T2 sequence (P30281 whole entry partner): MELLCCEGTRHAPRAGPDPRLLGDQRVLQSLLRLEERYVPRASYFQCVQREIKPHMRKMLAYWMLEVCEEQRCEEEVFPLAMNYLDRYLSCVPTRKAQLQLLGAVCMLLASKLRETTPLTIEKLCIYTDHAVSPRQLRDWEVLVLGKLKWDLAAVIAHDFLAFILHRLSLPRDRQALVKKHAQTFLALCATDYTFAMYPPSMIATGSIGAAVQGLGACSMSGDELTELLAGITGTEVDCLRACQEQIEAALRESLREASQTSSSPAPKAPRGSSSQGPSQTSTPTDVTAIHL

In the case of `N#Cc1cn([C@@H]2O[C@H](CO)[C@@H](O)[C@H]2O)c2ncnc(N)c12` [toyocamycin, 7-Deaza-7-cyanoadenosine], the IC50 was 79 nM and 79.5 nM on CDK9/Cyclin T1 (IC50, 10 µM ATP, 30 °C, 60 min); 80 nM on CDK9/Cyclin T1 (IC50, as quoted in docking section); greater than 10000 nM on CDK6/Cyclin D3. Besides, the viability in series [1] is greater than 50%.
